Data reported in patent publication US20220288068A1, “PHARMACEUTICAL PREPARATION” (MERCK PATENT GMBH, priority 2019, published 2022).
In brackets after ≈: the same amount, converted by molar mass.

Experiments:
[1] = Young's modulus by ultrasound-assisted instrumented single punch press; format: physicochemical; details: neat substance, in dependence of solid fraction; FIG. 3 and FIG. 4
Description: Young's modulus is assessed as an indicator for material stiffness (the higher Young's modulus, the more rigid a substance is) whereby its measurement is done in dependence of the solid fraction, which is complementary to porosity (i.e. solid fraction=1−porosity fraction). With this, a solid fraction of 1 indicates no porosity, i.e. no air entrapped in the solid phase. Pharmaceutical relevant solid fractions usually range from 0.75 to 0.85. Porosities have been determined by nitrogen pycnometry.
The measurements to determine the Young's modulus are conducted on a commercially available instrumented single punch press (Romaco Kilian StylOne system) with ultrasound-assisted measurement punches. For this purpose, neat substances are compacted between the upper and the lower punch, leading to densification of the material. The ultrasound velocity in the sample in dependence of the degree of densification is recorded and used for calculation of Youngs modulus of the specific substance.

[2] = Solubility in biorelevant media (FaSSIF, FeSSIF)
Description: Despite such low solubility rather high doses of far above 100 mg are needed for its use in the therapy. […] Accordingly, a pharmaceutical preparation for oral administration must have a high bioavailability to provide the high doses that are needed to achieve the desired therapeutic effect. Otherwise the pharmaceutical preparation would need to have an increased size not usable for its oral administration due to problems with its swallowability.

[3] = Solubility in oils for SEDDS/SMEDDS; format: physicochemical; details: oil or lipid; neutral oil
Description: Due to the relatively high doses necessary for therapeutic effect (approximately 500 mg) and a maximal dose in a self-emulsifying capsule formulation (SEDDS or SMEDDS) of not more than 5 mg, the patient would have to take 100 capsules to achieve the target dose.

- BCS classification ([2]; Amidon et al., 1995): BCS IV
- solubility ([2]; fassif): 43 µg/mL (≈ 87.3 µM)
- solubility [3]: < 5000 µg/mL
SMILES: CN1CCC(COc2cnc(-c3cccc(Cn4nc(-c5cccc(C#N)c5)ccc4=O)c3)nc2)CC1 [3-(1-{3-[5-(1-Methyl-piperidin-4-ylmethoxy)-pyrimidin-2-yl]-benzyl}-6-oxo-1,6-dihydro-pyridazin-3-yl)-benzonitrile]
- Young's modulus (elastic properties) [1]: distinct lower Young's moduli compared to widely used pharmaceutical fillers
